Experiments:
[1] = tested on: human breast cancer cell line MDA-MB-231 s.c. xenograft; test: Antitumor effect of capecitabine after eribulin treatment in MDA-MB-231 s.c. xenograft model; assay type: in vivo, nude mice; settings: capecitabine 540 mg/kg QD8 p.o. after eribulin 1.0 mg/kg QD1 i.v.; MDA-MB-231 xenograft; FIG. 1
Experimental: Antitumor Effect of Capecitabine after Eribulin Treatment in Human Breast Cancer Cell Line MDA-MB-231 s.c. Xenograft Models
MDA-MB-231 cells were cultured with RPMI 1640 medium containing 10% (v/v) FBS. Cultured tumor cells were suspended in 50% (v/v) BD Matrigel (BD bioscience, San Jose, Calif.) at a density of 10×10^7 cells/mL for s.c. inoculation into nude mice. A 0.1-mL aliquot of the cell suspension was transplanted subcutaneously into the right flank region of mice. Tumor volumes were calculated according to the following formula: (width [mm]^2×length [mm])/2. Tumor weights were calculated according to the following formula: tumor volume (mm^3)×1 (mg/mm^3). In the MDA-MB-231 xenograft model, when the mean tumor volume reached between 100 and 300 mg (1 mm^3=1 mg) on day 1, nude mice were randomly divided into each group. Control (no treatment); capecitabine, 540 mg/kg, QD8, p.o.; or eribulin, 1.0 mg/kg, QD1, i.v. was administered on day 1. In the eribulin group, eribulin-treated mice were randomly divided into two groups. […] The administration volume (0.1 mL/10 g body weight) was calculated based on the body weight before administration. The tumor volume was measured two times per week. […] The data was analyzed by the Dunnett multiple comparison test to compare two groups (GraphPad Prism version 6.02 (GraphPad Software Inc., La Jolla, Calif.)). […]

[2] = Pharmacokinetics study of carboplatin in tumor after administration of eribulin in MDA-MB-231 s.c. xenograft model; assay type: in vivo, nude mice; settings: for Concentration of Carboplatin in MDA-MB-231 Tumor, AUC (0-8): tumor homogenate
Experimental: Pharmacokinetics Study of Carboplatin in Tumor after Administration of Eribulin in Human Breast Cancer Cell Line MDA-MB-231 s.c. Xenograft Models
Female nude mice, once acclimatised, were subcutaneously injected with 5×10^6 MDA-MB-231 cells in a 1:1 ratio (50 μL each) with matrigel in a volume of 0.1 mL in phosphate buffered saline, on the right flank area using a 26-gauge needle. This ensured that sufficient mice with tumors in the volume range of approximately 200˜300 mm^3 were available for the study. When the tumors reached an average size of approximately 250 mm^3, 30 mice were selected. The study included an initial experiment containing 24 mice. The first group received eribulin mesylate dosed i.v. as a single dose of 3 mg/kg; for a 20 g animal 200 μL of 0.3 mg/mL eribulin mesylate solution was dosed. To control for tumor size, a vehicle control group (vehicle B) consisting of 27 mice, was introduced before carboplatin dosing. The mice in this group were chosen so that their tumor size matches the tumor size of the eribulin mesylate-treated mice group. Vehicle B group was split in 2 groups, first one of 3 mice which received vehicle (saline) i.v. injection and the second group of 24 mice received carboplatin i.v. injection. On day 1 of vehicle B or on day 15 after the treatment of eribulin, 100 mg/kg carboplatin was administered to all mice intravenously and tumor samples were collected under anesthesia at the assigned time points 0.083, 0.25, 0.5, 1, 4, 8, 24, and 48 hours (n=3 for each time point). Tumors were homogenized with 3 times their respective weights of 1×PBS using a Mini Bead Beater-96, and the concentration of carboplatin in each tumor homogenate was analyzed by a validated LC-MS method.
The PK parameters of carboplatin in tumors were calculated using a non-compartmental approach (Pheonix/WinNonlin v. 6.3, Pharsight; Mountain View, Calif.). The time point at which the concentration of carboplatin highest was denoted as tmax. The highest concentration of carboplatin was denoted as Cmax. The observed area under the tumor concentration versus time curve from time zero to the last quantifiable time point (AUC (0-t)) and to infinity (AUC (0-inf)) were calculated using the trapezoidal method. The AUC (0-inf) was calculated as AUC (0-t)+AUC extrap, where AUC extrap represents the extrapolated AUC from the last quantifiable time point (Clast) to infinity, and was calculated as Clast/λZ. Lamda z (λZ), slope of the concentration versus time curve during the terminal phase, was determined by linear regression.
The mean, standard deviation (SD) and percent coefficient of variation (% CV) of tumor concentrations were calculated using Excel 2010 (Microsoft, Redmond, Wash.). The mean, SD, and % CV for the PK parameters of carboplatin were determined in WinNonlin or Excel 2010. […]
An AB Sciex (Foster City, Calif.) API5000 mass spectrometer, with electrospray ionization under positive ion mode, was used for sample analysis. The collision-activated dissociation (CAD) with N2 was used to generate structure characteristic product ions for quantitation.
The peak areas of carboplatin were integrated using Analyst 1.6 (AB Sciex, Foster City, Calif.), and the areas were imported into Watson 7.2 (Thermo Fisher Scientific, Waltham, Mass.). Internal standard, tolbutamide, was added to each sample, excluded blank without IS, however IS was not used for quantitation due to inconsistent instrument response of tolbutamide in all analytical runs. […]

[3] = eribulin mesylate 3 mg/kg i.v., carboplatin 100 mg/kg i.v. on day 15

SMILES	antitumor activity of capecitabine with eribulin pretreatment compared with that without pretreatment [1]	Concentration of Carboplatin in MDA-MB-231 Tumor, AUC (0-8) ([2]; Eribulin pretreatment (eribulin mesylate 3 mg/kg i.v. single dose), carboplatin 100 mg/kg i.v. on day 15)	Concentration of Carboplatin in MDA-MB-231 Tumor, AUC (0-8) ([2]; Vehicle B group (no eribulin), carboplatin 100 mg/kg i.v.)	AUC (0-8) of carboplatin in tumor, eribulin pretreatment group relative to Vehicle B group [2, 3]	Cmax of carboplatin in tumor, eribulin pretreatment group relative to Vehicle B group [2, 3]	exposure of carboplatin in tumors ([2]; eribulin pretreatment group mice, Table 1, FIG. 4)
CCCCCOC(=O)Nc1nc(=O)n([C@@H]2O[C@H](C)[C@@H](O)[C@H]2O)cc1F [capecitabine]	significantly enhanced					
N.N.O=C([O-])C1(C(=O)[O-])CCC1.[Pt+2] [Carboplatin, carboplatin]		50504.02 ng·h/g	36864.98 ng·h/g	about 1.37 fold	about 2.20 fold	high exposure

Reference: patent US20170100367A1, “USE OF ERIBULIN IN THE TREATMENT OF CANCER” (priority 2014, published 2017)
